{"source": "patent US5776720A", "about": "“Assay reagent” (priority 1995, dated 1998)", "key": {"[1]": {"tested_on": "granulocytes", "assay": "Normal leukocyte enzyme activity (Table 3A), granulocytes", "format": "cell-based, human", "set-up": "unit not given here", "conditions": "normal donors", "from_the_text": "(§1) The measured fluorescence intensity can be converted from mean channel fluorescence (in peak or integrated mode) to MESF (molecules of equivalent soluble fluorochrome, Flow Cytometry Standards Corp. , San Juan, Puerto Rico) or International Units of hydrolysis per cell. A normal range of enzyme activity is established by assaying males and females in sufficient quantity to characterize the population levels statistically.\n(§2) A normal in house adult donor pool was drawn, recording sex and determining that no known disease state was present at the time of sample draw. Criteria for rejecting samples included patients under medication, patients with infection or inflammation of any type, colds and flu as well as any known medical illness such as cancer, heart ailment and high blood pressure. A donor list of 75 patients has been developed and a mean and 2 sd range established. A subgroup of \"super normals\" was developed from this list by examining the 75 patients to determine which group falls closest to the mean for all enzymes in all cell types tested. These patients were used as the \"wellness index\" or best group of \"normalcy\" patients. If a study required the use of children or newborns then this same format was used to develop a data base for these age groups."}, "[2]": {"tested_on": "amino peptidase", "assay": "immune competence, amino peptidase activity in Ficoll prepared lymphocytes (FIG. 4)", "format": "cell-based", "conditions": "acute lympholytic Ficoll prepared lymphocytes, FIG. 4B", "from_the_text": "The cell's ability to fight off an invader lies within its genetics and therefore cell type. The \"readiness\" however of any genetically capable group of cells to defend is different. A measure of this \"readiness\" is manifest in the available proteolytic enzymes contained within vacuoles or on the surface of the cell. The assay compound hydrolysis rate increases with increased mass of enzymes giving a picture of immune competence both in number of cells and activity level. […] Images were generated using Universal Imaging."}, "[3]": {"tested_on": "lymphocytes", "assay": "Normal leukocyte enzyme activity (Table 3A), lymphocytes", "format": "cell-based, human", "set-up": "unit not given here", "conditions": "normal donors", "from_the_text": "as §1, §2"}, "[4]": {"tested_on": "monocytes", "assay": "Normal leukocyte enzyme activity (Table 3A), monocytes", "format": "cell-based, human", "set-up": "unit not given here", "conditions": "normal donors", "from_the_text": "as §1, §2"}, "[5]": {"tested_on": "Ala-aminopeptidase and Lys-aminopeptidase, Dipeptidyl peptidase IV and Cathepsin D", "assay": "Panel of substrates in normals and HIV+ patients (Table 4)", "format": "cell-based, human", "description": "A panel of assay compounds are assembled consisting of Ala-aminopeptidase and Lys-aminopeptidase, Dipeptidyl peptidase IV (Ala-Ala)2 rhodamine 110 and Cathepsin D to indicate possible TB infection in AIDS related cases.\nA panel of enzymatic substrates is performed consisting of Ala-aminopeptidase and Lys-aminopeptidase, Dipeptidyl peptidase IV (Ala-Ala)2 rhodamine 110 and Cathepsin D to indicate possible TB infection in AIDS related cases."}, "[6]": {"tested_on": "granulocyte", "assay": "Peptidases to distinguish leukemia from non-leukemia (Table 6C), grans", "format": "cell-based, human", "from_the_text": "Artificial intelligence was used to analyze data of cellular enzyme functions, and determine normal and disease states. Peptidases were used to distinguish leukemia from non-leukemia (output pattern). For input patterns lymphocyte and granulocyte cell types were used with aminopeptidases, cathepsins and dipeptidylpeptidase enzyme activities. In this Example, illustrated in Tables 6A-6C, three normals and three leukemia patients were used as known output patterns for the neural network to learn (in practice, the larger the learning set the more accurate unknown prediction will be). Unknowns were then presented to the learned algorithm as shown in the test case examples. Clinical diagnosis was confirmed by physicians. The trained neural network was able to correctly classify the leukemia from the non-leukemia."}, "[7]": {"tested_on": "erythrocytes", "assay": "Normal erythrocyte enzyme activity (Table 3B)", "format": "cell-based, human", "conditions": "normal donors", "description": "A sample, consisting of whole blood (in EDTA, Heparin or ACD) or dissociated tissue or body fluids (synovial fluid) or cell culture media is obtained and stored in a manner so as not to decrease viability. The sample is washed sufficiently to remove plasma, media, body fluid, debris and extra-cellular enzymes. The wash media consists of a physiologically balanced buffered salt solution. The washed cells are incubated at 37° C. 50 μL of sample and 25 μL of substrate media are mixed together and allowed to incubate at 37° C. for a predetermined amount of time. At the end of the incubation period, the sample is then measured for fluorescence.\nas §2"}}, "note": "Several values for one entry are separate records, joined by “and”; a condition that tells them apart may be missing. Equal entries are not always repeated. Numbered stars: 1 amine (or outer) side, 2 acyl side, 3 side chain; on linkers, the order of the positions; unused ones are H or OH. Bridge positions count the residues as written; N and C are the ends. Peptide text beside a SMILES is read from it. I, II: the chains in the order shown. Rhodamine110 = O=C1OC2(c3ccc(N[*:1])cc3Oc3cc(N[*:2])ccc32)c2ccccc21", "data": [{"compound": "CC(C)C[C@H](N)C(=O)Nc1ccc2c(c1)Oc1cc(NC(=O)[C@@H](N)CC(C)C)ccc1C21OC(=O)c2ccccc21", "note": "[LEU, (Leu)2 Rho 110]", "values": [{"measurement": "NORMAL LEUKOCYTE ENZYME ACTIVITY, GRANS Mean", "setting": "[1]", "value": 80.19}, {"measurement": "amino peptidase activity", "setting": "[2]", "value": "lost their enzymatic activity"}, {"measurement": "NORMAL LEUKOCYTE ENZYME ACTIVITY, LYMPHS Mean", "setting": "[3]", "value": 34.94}, {"measurement": "NORMAL LEUKOCYTE ENZYME ACTIVITY, MONOS Mean", "setting": "[4]", "value": 120.66}]}, {"compound": "NC(=O)CC[C@H](N)C(=O)N[C@@H](CO)C(=O)Nc1ccc2c(c1)Oc1cc(NC(=O)[C@H](CO)NC(=O)[C@@H](N)CCC(N)=O)ccc1C21OC(=O)c2ccccc21", "note": "(relative stereo) [GLN--SER*]", "values": [{"measurement": "MEAN DELTA FL", "setting": "[5]; HIV + PATIENTS", "value": "13.7 and 12.7"}, {"measurement": "MEAN DELTA FL", "setting": "[5]; NORMALS", "value": "11.9 and 6.1"}]}, {"compound": "CC(C)C[C@H](N)C(=O)NCC(=O)Nc1ccc2c(c1)Oc1cc(NC(=O)CNC(=O)[C@@H](N)CC(C)C)ccc1C21OC(=O)c2ccccc21", "note": "[LG]", "values": [{"measurement": "NORMAL LEUKOCYTE ENZYME ACTIVITY, GRANS Mean", "setting": "[1]", "value": 29.99}, {"measurement": "enzyme activity", "setting": "[6]; N193 NORMAL", "value": 3.55}, {"measurement": "enzyme activity", "setting": "[6]; N199* NORMAL (later found to have cervical cancer)", "value": 2.02}, {"measurement": "NORMAL LEUKOCYTE ENZYME ACTIVITY, LYMPHS Mean", "setting": "[3]", "value": 13.83}, {"measurement": "NORMAL LEUKOCYTE ENZYME ACTIVITY, MONOS Mean", "setting": "[4]", "value": 44.56}]}, {"compound": "N=C(N)NCCC[C@H](N)C(=O)NCC(=O)N[C@@H](CCC(=O)O)C(=O)N[C@@H](CO)C(=O)Nc1ccc2c(c1)Oc1cc(NC(=O)[C@H](CO)NC(=O)[C@H](CCC(=O)O)NC(=O)CNC(=O)[C@@H](N)CCCNC(=N)N)ccc1C21OC(=O)c2ccccc21", "note": "(stereo partly drawn) [RGES, (Arg-Gly-Glu-Ser)2 Rho 110] (I: H-RGES / II: H-RGES; linker I:C-II:C via Rhodamine110)", "values": [{"measurement": "NORMAL LEUKOCYTE ENZYME ACTIVITY, GRANS Mean", "setting": "[1]", "value": 3.96}, {"measurement": "NORMAL E[…] ACTIVITY MEAN", "setting": "[7]", "value": 0.118}, {"measurement": "NORMAL LEUKOCYTE ENZYME ACTIVITY, LYMPHS Mean", "setting": "[3]", "value": 1.43}, {"measurement": "NORMAL LEUKOCYTE ENZYME ACTIVITY, MONOS Mean", "setting": "[4]", "value": 8.37}]}, {"compound": "NCCCC[C@H](N)C(=O)Nc1ccc2c(c1)Oc1cc(NC(=O)[C@@H](N)CCCCN)ccc1C21OC(=O)c2ccccc21", "note": "[LYS, (H--L--Lys)2 Rho 110.4TFA]", "values": [{"measurement": "NORMAL LEUKOCYTE ENZYME ACTIVITY, GRANS Mean", "setting": "[1]", "value": 4.27}, {"measurement": "enzyme activity", "setting": "[6]; N194 NORMAL", "value": 1.66}, {"measurement": "NORMAL LEUKOCYTE ENZYME ACTIVITY, LYMPHS Mean", "setting": "[3]", "value": 1.16}, {"measurement": "NORMAL LEUKOCYTE ENZYME ACTIVITY, MONOS Mean", "setting": "[4]", "value": 7.56}]}, {"compound": "N=C(N)NCCC[C@H](NC(=O)OCc1ccccc1)C(=O)Nc1ccc2c(c1)Oc1cc(NC(=O)[C@H](CCCNC(=N)N)NC(=O)OCc3ccccc3)ccc1C21OC(=O)c2ccccc21", "note": "(stereo partly drawn) [Z--ARG]", "values": [{"measurement": "NORMAL LEUKOCYTE ENZYME ACTIVITY, GRANS Mean", "setting": "[1]", "value": 7.22}, {"measurement": "NORMAL E[…] ACTIVITY MEAN", "setting": "[7]", "value": 0.106}, {"measurement": "NORMAL LEUKOCYTE ENZYME ACTIVITY, LYMPHS Mean", "setting": "[3]", "value": 2.02}, {"measurement": "NORMAL LEUKOCYTE ENZYME ACTIVITY, MONOS Mean", "setting": "[4]", "value": 16.80}]}, {"compound": "ALA--GLY*", "values": [{"measurement": "MEAN DELTA FL", "setting": "[5]; HIV + PATIENTS", "value": 29.7}, {"measurement": "MEAN DELTA FL", "setting": "[5]; HIV + PATIENTS, listed as ALA--GLY****", "value": 39.9}, {"measurement": "MEAN DELTA FL", "setting": "[5]; NORMALS", "value": 31.6}, {"measurement": "MEAN DELTA FL", "setting": "[5]; NORMALS, listed as ALA--GLY****", "value": 48.0}]}]}
